The results in this text go back to ChEMBL document CHEMBL1149226, “Inhibitors of hepatitis C virus NS3.4A protease. Part 3: P2 proline variants” (Bioorg Med Chem Lett, 2004).

Starred links: 1 amine or outer side, 2 acyl side, 3 side chain; linkers in the order of their positions; H or OH if unused. Non-standard residues stand in square brackets, D forms with d. Residues, ends and D or L forms follow the SMILES beside them. Groups on a side chain read outwards from the residue. *: point of attachment. Tetrahydroisoquinolin(2-yl) = c1ccc2c(c1)CCN(*)C2; Pro(3S-Et) = CC[C@H]1CCN[C@@H]1C(=O)O; X1 = CCC[C@H](N[*:1])C(=O)C(=O)[*:2]; Pyrazinecarbonyl = O=C(c1cnccn1)*; Hyp = O=C(O)[C@@H]1C[C@@H](O)CN1; CO = O=C([*:1])[*:2]

The target of test [1] is Hepatitis C virus serine protease, NS3/NS4A (Hepatitis C virus, UniProt D2K2A8+A3EZI9). As to the kind of experiment: (§1) Inhibitory activity against hepatitis C virus NS3.4A protease. Format: protein-complex assay, Hepacivirus hominis.
In test [2] the target is Hepatitis C virus serine protease, NS3/NS4A (Hepatitis C virus, UniProt A3EZI9+D2K2A8). The description is as §1. Format: protein-complex assay, Hepacivirus hominis.
Sequence of Hepatitis C virus serine protease, NS3/NS4A (Hepatitis C virus, UniProt A3EZI9+D2K2A8) (D2K2A8 whole entry): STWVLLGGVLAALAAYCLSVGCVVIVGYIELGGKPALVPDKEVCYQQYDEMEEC
Sequence of Hepatitis C virus serine protease, NS3/NS4A (Hepatitis C virus, UniProt A3EZI9+D2K2A8) (A3EZI9 whole entry): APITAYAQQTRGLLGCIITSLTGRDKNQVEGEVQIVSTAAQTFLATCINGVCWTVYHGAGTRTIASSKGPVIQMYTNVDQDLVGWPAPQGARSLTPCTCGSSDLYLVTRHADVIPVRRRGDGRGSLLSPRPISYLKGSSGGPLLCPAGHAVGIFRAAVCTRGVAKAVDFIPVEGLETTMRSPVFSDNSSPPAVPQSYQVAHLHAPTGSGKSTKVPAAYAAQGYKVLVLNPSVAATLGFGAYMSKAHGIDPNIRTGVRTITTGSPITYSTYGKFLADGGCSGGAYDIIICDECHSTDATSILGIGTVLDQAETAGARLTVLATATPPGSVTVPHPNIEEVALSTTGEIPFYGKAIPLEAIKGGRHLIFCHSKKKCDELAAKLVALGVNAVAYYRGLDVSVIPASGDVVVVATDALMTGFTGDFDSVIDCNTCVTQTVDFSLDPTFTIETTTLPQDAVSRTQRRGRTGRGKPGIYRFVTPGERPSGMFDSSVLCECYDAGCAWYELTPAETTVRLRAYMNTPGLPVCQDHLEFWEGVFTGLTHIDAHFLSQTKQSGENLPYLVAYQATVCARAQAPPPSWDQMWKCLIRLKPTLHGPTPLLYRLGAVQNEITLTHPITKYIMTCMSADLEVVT

Sequence of Hepatitis C virus serine protease, NS3/NS4A (Hepatitis C virus, UniProt D2K2A8+A3EZI9) (D2K2A8 whole entry): as the sequence (D2K2A8 whole entry) above
Sequence of Hepatitis C virus serine protease, NS3/NS4A (Hepatitis C virus, UniProt D2K2A8+A3EZI9) (A3EZI9 whole entry): as the sequence (A3EZI9 whole entry) above

In the case of `CC[C@H](NC(=O)[C@@H]1[C@@H](C)CCN1C(=O)[C@@H](NC(=O)[C@@H](NC(=O)c1cnccn1)C(C)C)C(C)C)C(=O)C(=O)N[C@@H](C)c1ccccc1`, the Ki in test [1] was 1400 nM. In the case of `CCC[C@H](NC(=O)[C@@H]1CCCN1C(=O)[C@@H](NC(=O)[C@@H](NC(=O)c1cnccn1)C1CCCCC1)C(C)(C)C)C(=O)C(=O)NC1CC1`, the Ki in test [2] came to 1200 nM. `CCC[C@H]1CCN(C(=O)[C@@H](NC(=O)[C@@H](NC(=O)c2cnccn2)C(C)C)C(C)C)[C@@H]1C(=O)N[C@@H](CCC)C(=O)C(=O)N[C@@H](Cc1ccccc1)C(=O)O` returned a Ki in test [1] of 1200 nM. That is a single-digit micromolar value. With `CCC[C@H](NC(=O)[C@@H]1[C@@H](C(C)CC)CCN1C(=O)[C@@H](NC(=O)[C@@H](NC(=O)c1cnccn1)C(C)C)C(C)C)C(=O)C(=O)N[C@@H](Cc1ccccc1)C(=O)O` (some centres undefined), the Ki in test [1] worked out at 120 nM. Same read-out and setting: for `CCC[C@H](NC(=O)[C@@H]1[C@@H](C(=O)OC)CCN1C(=O)[C@@H](NC(=O)[C@@H](NC(=O)c1cnccn1)C(C)C)C(C)C)C(=O)C(=O)N[C@@H](Cc1ccccc1)C(=O)O` the value was 180 nM. The same measure, in the same setting: for `CC[C@H](NC(=O)[C@@H]1C[C@@H](OCc2ccccc2)CN1C(=O)[C@@H](NC(=O)[C@@H](NC(=O)c1cnccn1)C(C)C)C(C)C)C(=O)C(=O)N[C@@H](C)c1ccccc1` the value was 920 nM; for `C=CC[C@H]1CCN(C(=O)[C@@H](NC(=O)[C@@H](NC(=O)c2cnccn2)C(C)C)C(C)C)[C@@H]1C(=O)N[C@@H](CCC)C(=O)C(=O)N[C@@H](Cc1ccccc1)C(=O)O`, 210 nM.

`CCC[C@H](NC(=O)[C@@H]1C[C@@H](OC(=O)N2CCc3ccccc3C2)CN1C(=O)[C@@H](NC(=O)[C@@H](NC(=O)c1cnccn1)C(C)C)C(C)C)C(=O)C(=O)N[C@@H](Cc1ccccc1)C(=O)O` (Pyrazinecarbonyl-VV[Hyp]([CO-Tetrahydroisoquinolin(2-yl)])[X1]F-OH): affinity in test [1] was put at a Ki of 20 nM. As for `CCC[C@H](NC(=O)[C@@H]1[C@@H](CC)CCN1C(=O)[C@@H](NC(=O)[C@@H](NC(=O)c1cnccn1)C(C)C)C(C)C)C(=O)C(=O)N[C@@H](Cc1ccccc1)C(=O)O` (Pyrazinecarbonyl-VV[Pro(3S-Et)][X1]F-OH), the Ki in test [1] came out at 220 nM.
